The assay addresses OTU domain-containing protein 3 (Homo sapiens) (UniProt Q5T2D3). Description: Validation of screening hits, potency titration, in vitro enzymatic, OTU domain-containing protein 3 DUB inhibitors (AID 1645868). Particulars: purified OTUD3, ubiquitin-rhodamine cleavage fluorescence, 2 h.

Structures are written as SMILES. The source made the active and inactive calls.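 The calls were made as follows: active = maximal percent inhibition of the deubiquitinase OTUD3 of at least 30% across the tested doses; inactive = the rest.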

As usually defined, the IC50 is the concentration needed to halve the response being measured.

OTU domain-containing protein 3 (Homo sapiens), sequence (Q5T2D3 whole entry, looked up, the tested form may be a part): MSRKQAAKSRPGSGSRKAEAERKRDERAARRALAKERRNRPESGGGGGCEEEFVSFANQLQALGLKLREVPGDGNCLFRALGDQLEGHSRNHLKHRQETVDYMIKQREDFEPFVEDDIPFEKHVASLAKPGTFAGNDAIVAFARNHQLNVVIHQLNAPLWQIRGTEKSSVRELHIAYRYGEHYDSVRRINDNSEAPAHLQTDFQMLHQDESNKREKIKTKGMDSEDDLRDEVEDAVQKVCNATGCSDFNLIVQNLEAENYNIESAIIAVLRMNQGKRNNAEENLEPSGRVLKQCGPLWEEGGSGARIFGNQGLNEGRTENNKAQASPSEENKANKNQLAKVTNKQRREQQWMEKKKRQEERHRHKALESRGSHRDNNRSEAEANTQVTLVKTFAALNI

In the case of `COc1cccc(NC(=O)C2CCC(CNS(=O)(=O)c3ccc4c(c3)C(C)(C)C(=O)N4C)CC2)c1` (stereo not drawn), the IC50 was > 50 µM (inactive).

With `CN1CCN(C(=O)c2cc(-c3ccn(CC4CC4)n3)n3ccccc23)CC1`, the IC50 is > 50 µM (inactive).

Take `Cc1ccc(NC(=O)c2cnc(N3CCOCC3)nc2)cc1F`: the IC50 was > 50 µM (inactive).

`Cc1cccc2sc(NC(=O)c3nnn(-c4ccc(F)cc4)n3)nc12`: the IC50 was > 50 µM (inactive).

As for `O=S1(=O)CCN(Cc2cccnc2)c2c(F)nc(N3CCOCC3)c(F)c21`, the IC50 is > 50 µM (inactive).

With `N#Cc1cccc(NC(=O)Nc2cccn(Cc3ccccc3F)c2=O)c1`, the IC50 was > 50 µM (inactive).

Turning to `CCOc1ccc(C(=O)Cn2c(=O)n(CC3CCCO3)c(=O)c3cc(OC)c(OC)cc32)cc1Cl` (stereo not drawn), the IC50 was 45.1 µM.

For `COc1ccc(-c2nc(Cn3nnc(C(=O)Nc4ccc(C)c(C)c4)c3N)c(C)o2)cc1`, the half-inhibitory concentration (IC50) was 3.46 µM.

Consider `Cc1noc(-c2cc(=O)n(CC(=O)NCc3ccccc3F)c3ccccc23)n1`, for which the half-maximal inhibitory concentration (IC50) is 25 µM.

Consider `Cc1nc(SCC(=O)Nc2cc(Cl)ccc2C)c2oc3ccccc3c2n1`, for which the IC50 is > 50 µM (inactive).

`C=Cc1ccc(Cn2cccc(S(=O)(=O)N3CCCC3)c2=O)cc1`: the IC50 was > 50 µM (inactive).

`CC(C)(C)C(=O)C1C2C(=O)N(Cc3ccccc3)C(=O)C2C2c3ccccc3C=CN12` (stereo not drawn): the IC50 is > 50 µM (inactive).

With `Nc1c(-c2ccc(Cl)cc2)cnc2nc(Sc3ncc(C(F)(F)F)cc3Cl)nn12`, the IC50 is > 50 µM (inactive).

For `Cc1ccccc1Cn1cc(SCC(=O)Nc2ccc3c(c2)OCCO3)c2ccccc21`, the IC50 was > 50 µM (inactive).

Regarding `O=C1/C(=C/c2cn(-c3ccccc3)nc2-c2ccc3c(c2)OCCO3)Cc2ccccc21`, the IC50 is > 50 µM (inactive).

In the case of `CCC1OC(O)(C(C)C(O)C(C)C2OC(=O)/C(C)=C/C(C)=CC(C)C(O)C(C)C/C(C)=C/C=C/C2OC)CC(OC(=O)/C=C/C(=O)NC2=C(O)CCC2=O)C1C` (stereo not drawn), the IC50 was > 50 µM (inactive).

Turning to `Cc1noc(C)c1CN1CC[C@H]2O[C@H](C(=O)NCc3ccco3)CC[C@H]21`, the IC50 was > 50 µM (inactive).

Turning to `Cc1cccc(N2C(=O)/C(=C\c3ccc4c(c3)OCCO4)c3ccccc3C2=O)c1`, the IC50 was > 50 µM (inactive).

Consider `CCOc1ccccc1C(=O)Nc1ccc2c(c1)Sc1ncccc1C(=O)N2C`, for which the IC50 was > 50 µM (inactive).

As for `COc1ccc(CCNC(=O)c2c(N)n(-c3cccc(Cl)c3)c3nc4ccccc4nc23)cc1`, the IC50 was > 50 µM (inactive).

`Cc1cccc(OCCn2c(CCNC(=O)C3CCCCC3)nc3ccccc32)c1`: the IC50 is 32.8 µM.

In the case of `Cc1ccc(NC(=O)Cn2cc(S(=O)(=O)N3CCCC3)ccc2=O)cc1`, the IC50 is 27.6 µM.

Turning to `CC(C)c1nc2sc3c(N(CCO)CCO)ncnc3c2c2c1COC(C)(C)C2`, the IC50 is > 50 µM (inactive).

In the case of `Cc1c(Cl)cccc1NC(=O)Cn1c(=O)c2ccccc2n2nncc12`, the IC50 was > 50 µM (inactive).

Take `Cc1sc(NC(=O)/C=C/c2ccco2)nc1-c1ccccc1`: the IC50 was > 50 µM (inactive).

For the molecule `Cc1csc2ncc(C(=O)N3CCN(c4ccccc4F)CC3)c(=O)n12`, the IC50 is > 50 µM (inactive).

With `COc1ccc(C(=O)Nc2ccc3c(c2)Sc2ncccc2C(=O)N3C)cn1`, the IC50 was > 50 µM (inactive).

As to `O=C(/C=C/c1ccc2c(c1)OCO2)Nc1nc2c(s1)COCC2`, the IC50 was > 50 µM (inactive).

As for `COc1ccc(C(=O)Nc2cc3c4c(c2)C(C)C(=O)N4CCC3)cc1` (stereo not drawn), the IC50 is > 50 µM (inactive).

For the molecule `O=C(NCc1ccc2c(c1)OCO2)c1nnc(Cc2ccc(F)cc2)o1`, the IC50 is > 50 µM (inactive).

Turning to `N#Cc1ccccc1COC(=O)c1ccc2ccccc2n1`, the IC50 is > 50 µM (inactive).

Turning to `Cc1ccn(-c2ccc(NC(=O)c3ccccc3Sc3ccccc3C#N)cc2)n1`, the concentration for half-maximal inhibition (IC50) was 44.5 µM.

Consider `CCN(CC)c1nc(F)c2c(c1F)S(=O)(=O)CCN2Cc1ccccc1`, for which the IC50 was > 50 µM (inactive).

In the case of `Cc1ccc(CNC(=O)Cn2cnc3c(cnn3-c3cccc(Cl)c3)c2=O)cc1`, the IC50 was > 50 µM (inactive).

As for `CC1CC[C@]2(NC1)O[C@H]1C[C@H]3[C@@H]4CC[C@H]5C[C@@H](O[C@@H]6O[C@H](CO)[C@H](O[C@@H]7O[C@H](CO)[C@@H](O)[C@H](O[C@@H]8OC[C@@H](O)[C@H](O)[C@H]8O)[C@H]7O[C@@H]7O[C@H](CO)[C@@H](O)[C@H](O)[C@H]7O)[C@H](O)[C@H]6O)CC[C@]5(C)[C@H]4CC[C@]3(C)[C@H]1[C@@H]2C` (stereo partly drawn), the IC50 was > 50 µM (inactive).

As for `O=C(O)c1ccccc1C(=O)Nc1ccc(SC(C(=O)Nc2ccccc2)c2ccccc2)cc1` (stereo not drawn), the IC50 is > 50 µM (inactive).

With `O=C(c1cscn1)N1CCC2(CC1)CC1(CO2)Nc2ccccc2-n2cccc21` (stereo not drawn), the IC50 is > 50 µM (inactive).

With `Cc1ccc(C)c(Cn2nnc3c(=O)[nH]c(C4CCN(S(=O)(=O)c5ccc(S(=O)(=O)NC6CC6)cc5)CC4)nc32)c1`, the concentration for half-maximal inhibition (IC50) was 35.1 µM.

In the case of `CCC(=O)Nc1cccnc1-c1ccc(C(=O)Nc2cccc(OC)c2)cc1`, the IC50 is > 50 µM (inactive).

Take `CSc1ccccc1C(=O)Nc1nc(-c2ccncc2)cs1`: the IC50 was 46.3 µM.

As for `COc1ccc(-c2cc(-c3nnc4n3CCCCC4)n(-c3ccccc3)n2)cc1`, the IC50 was > 50 µM (inactive).

Consider `O=C(CSc1nnc(-c2ccncc2)n1Cc1ccccc1)c1ccc2[nH]c(O)cc2c1`, for which the IC50 is > 50 µM (inactive).

Turning to `Cc1ccc(NC(=O)c2ccc(N3CCOCC3)nn2)cc1F`, the IC50 is > 50 µM (inactive).

Regarding `O=C(Nc1ccc2c(c1)OCCO2)c1ccc(N2CCCCC2)nn1`, the IC50 was > 50 µM (inactive).

As to `COc1ccc(NC(=O)c2nc3n(n2)-c2ccccc2S(=O)(=O)N3)cn1`, the IC50 was > 50 µM (inactive).

`COCCCNC(=O)Cn1c(=O)n(Cc2ccc(C(=O)NCc3ccccc3OC)cc2)c(=O)c2ccccc21`: the IC50 is > 50 µM (inactive).

As to `CSc1ccc(CNCc2c(C(=O)O)n(Cc3ccccc3)c3cc(C)ccc23)cc1`, the IC50 is > 50 µM (inactive).

Take `COc1ccc(Cl)c(NC(=O)C2CC(=O)Nc3cc(-c4ccccc4)nn32)c1` (stereo not drawn): the 50% inhibitory concentration (IC50) was 24.9 µM.

Turning to `FC(F)(F)c1cccc(Nc2nnc(-c3cccnc3)s2)c1`, the IC50 is > 50 µM (inactive).

On to `COc1ccc(C(=O)Nc2ccccc2C(=O)NCc2ccccc2)cc1`, for which the IC50 is > 50 µM (inactive).

Consider `O=C(COc1ccc2c(-c3ccccc3)cc(=O)oc2c1)Nc1cccnc1`, for which the IC50 was 21.5 µM.

Consider `O=C(C1CCCN(S(=O)(=O)N2CCCCCC2)C1)N1CCN(c2ccccc2)CC1` (stereo not drawn), for which the IC50 is > 50 µM (inactive).

For the molecule `CN[C@H]1CC2(CCN(C(=O)CCCn3cccn3)CC2)OC[C@]1(C)O`, the IC50 was > 50 µM (inactive).

Turning to `CCc1c(Cl)c(O)c(Cl)c(O)c1C(=O)O[C@H]1C(C)O[C@@H](OC/C2=C\C=C\CC(O)/C(C)=C/C(CC)C(O[C@@H]3OC(C)(C)[C@H](O)C(OC(=O)C(C)C)[C@@H]3O)/C(C)=C/C(C)=C/CC(C(C)O)OC2=O)[C@@H](OC)C1O` (stereo partly drawn), the IC50 was > 50 µM (inactive).

In the case of `Cc1cc(NC(=O)Cn2c(=O)n(CCCCC(=O)NCc3ccco3)c(=O)c3ccccc32)ccc1Br`, the IC50 was 3.48 µM.

Consider `CCOc1ccccc1-c1nc(-c2nnn(Cc3ccccc3)c2C)no1`, for which the IC50 is > 50 µM (inactive).

Regarding `CCOc1ccc(CCNC(=O)c2ccc3c(c2)N(CC)C(=O)c2ccccc2S3)cc1OCC`, the IC50 was > 50 µM (inactive).

As to `Cc1cc(C(=O)N2CCOCC2)c(C)n1-c1ccc(O)cc1`, the IC50 was > 50 µM (inactive).

Take `C/C1=C/C=C/[C@H](C)[C@H](O)[C@@H](C)[C@@H](O)[C@@H](C)[C@H](O)[C@H](C)[C@@H](O)[C@@H](C)/C=C(/C)C(=O)c2c(O)c(C)cc3c2C(=O)C=C(NC1=O)C3=O`: the IC50 is > 50 µM (inactive).

Turning to `COc1ccc(-c2cc(-c3ccc(O)cc3)nc(N)c2C#N)cc1OC`, the IC50 is > 50 µM (inactive).

On to `CC(C)OC(=O)c1cc2c(ccn2C)n1CC(=O)N1CCN(C(=O)c2ccco2)CC1`, for which the IC50 is > 50 µM (inactive).

With `COc1ccccc1NC(=O)Cn1cc(C(=O)c2ccc(C)cc2)c(=O)c2ccccc21`, the IC50 was 39.5 µM.

Take `COc1ccc(NC(=O)c2[nH]nc3c2COc2ccccc2-3)c(OC)c1`: the IC50 is 19.1 µM.

Regarding `CC(C)NC(=O)Cn1ccn2nc(-c3ccc(Cl)cc3)cc2c1=O`, the IC50 is > 50 µM (inactive).

For the molecule `COc1ccc(NC(=O)C2CC(=O)Nc3cc(-c4ccccc4)nn32)cc1` (stereo not drawn), the IC50 was 26.6 µM.

For `CCn1cc(-c2nc(-c3ccccn3)no2)c(=O)c2cc(F)ccc21`, the IC50 is > 50 µM (inactive).

With `O=C(NCc1cccc(NC(=O)C2CC2)c1)Nc1cccc2ccccc12`, the IC50 was 30.7 µM.

As to `COc1ccc(NC(=O)CSc2oc(-c3ccc(C)cc3)nc2S(=O)(=O)c2ccc(Br)cc2)c(OC)c1`, the IC50 is > 50 µM (inactive).

In the case of `COC(=O)COc1ccc(/C=N/NC(=O)c2ccc(CN3CCc4ccccc4C3)cc2)cc1`, the half-inhibitory concentration (IC50) is 43.8 µM.

In the case of `CN1CCC(N(C)S(=O)(=O)c2ccc(NC(=O)c3cccc(OCc4ccccc4)c3)cc2)CC1`, the IC50 was > 50 µM (inactive).

Turning to `COc1ccc(NC(=O)C2CC(=O)Nc3c(-c4ccc(Cl)cc4)cnn32)c(OC)c1` (stereo not drawn), the IC50 is 34 µM.

Regarding `COc1cc(O)c2c(O)c3c(cc2c1)CC(C)OC3=O` (stereo not drawn), the IC50 is > 50 µM (inactive).

On to `Cc1cc(C)n(-c2cccc(C(=O)Nc3ccc4c(c3)CCN4S(C)(=O)=O)c2)n1`, for which the IC50 was > 50 µM (inactive).

Take `COc1ccccc1-c1nc2c3c(C)c(C)n(-c4ccc(Br)cn4)c3ncn2n1`: the IC50 is > 50 µM (inactive).

In the case of `O=C(Nc1ccc2c(c1)OCCO2)c1cc(CN2CCCC2)on1`, the IC50 is > 50 µM (inactive).

Turning to `O=C(Cn1cncc(C(=O)NC2CCCC2)c1=O)Nc1cccc(F)c1`, the IC50 was 38.7 µM.

On to `CCOc1ccccc1NC(=O)Cn1c(-c2ccc3c(c2)OCO3)cn(-c2ccc(OC)cc2)c1=O`, for which the IC50 is > 50 µM (inactive).

Consider `COc1cc(C)c2c(=O)c3c(oc2c1)C(=O)c1c(O)c(OC)cc(O)c1C3=O`, for which the IC50 is 2.76 µM.
